What was measured:
[1] = target: Tyrosine-protein kinase ABL1 (Homo sapiens) (UniProt P00519)
[2] = target: Activin receptor type-2A (Homo sapiens) (UniProt P27037)
[3] = target: Cyclin-dependent kinase 2 (Homo sapiens) (UniProt P24941)
[4] = target: Cyclin-dependent kinase-like 3 (Homo sapiens) (UniProt Q8IVW4)
[5] = target: T1, Tyrosine-protein kinase JAK3 (Homo sapiens) (UniProt P52333)
T1 sequence (whole entry): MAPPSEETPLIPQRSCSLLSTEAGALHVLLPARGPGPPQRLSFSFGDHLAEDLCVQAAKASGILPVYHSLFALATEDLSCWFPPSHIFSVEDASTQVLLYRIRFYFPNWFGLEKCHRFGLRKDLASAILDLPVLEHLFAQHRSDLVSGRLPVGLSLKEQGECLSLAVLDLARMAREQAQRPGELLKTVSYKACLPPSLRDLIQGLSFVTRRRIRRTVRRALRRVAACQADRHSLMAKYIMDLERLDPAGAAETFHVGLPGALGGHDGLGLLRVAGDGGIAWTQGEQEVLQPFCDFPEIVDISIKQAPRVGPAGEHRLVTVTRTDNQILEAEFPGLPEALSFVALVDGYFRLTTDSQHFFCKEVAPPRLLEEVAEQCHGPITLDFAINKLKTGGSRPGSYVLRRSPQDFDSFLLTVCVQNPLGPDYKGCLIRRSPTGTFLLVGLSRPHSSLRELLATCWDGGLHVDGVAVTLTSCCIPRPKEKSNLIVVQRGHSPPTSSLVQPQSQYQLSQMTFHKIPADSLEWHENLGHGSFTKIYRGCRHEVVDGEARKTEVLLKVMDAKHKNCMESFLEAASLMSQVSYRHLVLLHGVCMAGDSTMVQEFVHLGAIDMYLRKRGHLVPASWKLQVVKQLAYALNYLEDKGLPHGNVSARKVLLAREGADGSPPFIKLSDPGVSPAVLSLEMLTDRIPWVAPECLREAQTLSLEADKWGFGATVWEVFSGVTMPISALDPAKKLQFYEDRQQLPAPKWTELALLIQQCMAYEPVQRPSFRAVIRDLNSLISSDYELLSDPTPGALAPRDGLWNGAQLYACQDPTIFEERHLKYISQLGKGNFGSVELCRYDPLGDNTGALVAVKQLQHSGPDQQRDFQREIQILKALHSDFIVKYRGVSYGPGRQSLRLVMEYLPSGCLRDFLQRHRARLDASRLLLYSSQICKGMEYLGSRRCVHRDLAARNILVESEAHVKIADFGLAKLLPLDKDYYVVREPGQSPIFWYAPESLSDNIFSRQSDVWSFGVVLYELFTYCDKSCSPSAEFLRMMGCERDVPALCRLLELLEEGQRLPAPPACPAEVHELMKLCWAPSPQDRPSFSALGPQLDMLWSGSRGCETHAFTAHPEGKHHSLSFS

[6] = target: Mitogen-activated protein kinase 11 (Homo sapiens) (UniProt Q15759)
Chain of Mitogen-activated protein kinase 11 (Homo sapiens) (Q15759 whole entry): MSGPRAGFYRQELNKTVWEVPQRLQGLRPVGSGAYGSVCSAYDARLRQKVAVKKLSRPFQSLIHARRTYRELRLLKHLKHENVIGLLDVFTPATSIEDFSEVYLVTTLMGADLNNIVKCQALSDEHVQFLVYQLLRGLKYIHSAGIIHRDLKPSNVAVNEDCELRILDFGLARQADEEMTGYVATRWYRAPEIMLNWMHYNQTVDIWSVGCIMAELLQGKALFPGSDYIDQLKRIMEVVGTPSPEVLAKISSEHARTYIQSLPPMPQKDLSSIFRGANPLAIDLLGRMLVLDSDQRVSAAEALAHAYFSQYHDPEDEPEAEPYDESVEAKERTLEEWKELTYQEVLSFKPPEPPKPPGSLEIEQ

[7] = target: Serine/threonine-protein kinase PLK4 (Homo sapiens) (UniProt O00444)
Chain of Serine/threonine-protein kinase PLK4 (Homo sapiens) (O00444 whole entry): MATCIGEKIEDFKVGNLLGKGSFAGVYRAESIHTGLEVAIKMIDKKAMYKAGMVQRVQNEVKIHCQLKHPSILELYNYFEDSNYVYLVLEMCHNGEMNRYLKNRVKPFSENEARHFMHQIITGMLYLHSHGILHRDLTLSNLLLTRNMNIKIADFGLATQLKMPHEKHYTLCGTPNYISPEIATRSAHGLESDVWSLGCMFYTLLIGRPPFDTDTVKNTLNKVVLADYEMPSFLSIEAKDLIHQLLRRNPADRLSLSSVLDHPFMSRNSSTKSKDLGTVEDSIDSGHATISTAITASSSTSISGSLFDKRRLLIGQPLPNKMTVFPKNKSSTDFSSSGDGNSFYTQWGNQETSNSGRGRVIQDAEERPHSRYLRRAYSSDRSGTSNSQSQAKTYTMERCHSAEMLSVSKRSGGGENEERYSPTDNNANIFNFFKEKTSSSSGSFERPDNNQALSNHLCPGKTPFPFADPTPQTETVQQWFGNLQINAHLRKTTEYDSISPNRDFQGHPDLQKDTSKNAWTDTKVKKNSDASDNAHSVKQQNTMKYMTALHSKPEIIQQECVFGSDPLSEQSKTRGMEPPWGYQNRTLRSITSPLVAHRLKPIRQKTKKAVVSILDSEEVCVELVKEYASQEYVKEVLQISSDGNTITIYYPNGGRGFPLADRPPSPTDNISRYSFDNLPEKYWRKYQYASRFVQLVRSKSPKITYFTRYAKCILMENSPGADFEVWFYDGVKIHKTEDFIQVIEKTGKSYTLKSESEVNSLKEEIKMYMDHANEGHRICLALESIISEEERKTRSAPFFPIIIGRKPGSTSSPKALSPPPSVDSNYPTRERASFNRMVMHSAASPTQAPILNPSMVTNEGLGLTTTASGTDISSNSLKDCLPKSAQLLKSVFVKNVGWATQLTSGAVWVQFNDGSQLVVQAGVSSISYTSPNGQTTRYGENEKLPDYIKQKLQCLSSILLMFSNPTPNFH

[8] = target: Histamine H3 receptor (Homo sapiens) (UniProt Q9Y5N1); settings: Compound concentration 10.0 uM
Chain of Histamine H3 receptor (Homo sapiens) (Q9Y5N1 whole entry): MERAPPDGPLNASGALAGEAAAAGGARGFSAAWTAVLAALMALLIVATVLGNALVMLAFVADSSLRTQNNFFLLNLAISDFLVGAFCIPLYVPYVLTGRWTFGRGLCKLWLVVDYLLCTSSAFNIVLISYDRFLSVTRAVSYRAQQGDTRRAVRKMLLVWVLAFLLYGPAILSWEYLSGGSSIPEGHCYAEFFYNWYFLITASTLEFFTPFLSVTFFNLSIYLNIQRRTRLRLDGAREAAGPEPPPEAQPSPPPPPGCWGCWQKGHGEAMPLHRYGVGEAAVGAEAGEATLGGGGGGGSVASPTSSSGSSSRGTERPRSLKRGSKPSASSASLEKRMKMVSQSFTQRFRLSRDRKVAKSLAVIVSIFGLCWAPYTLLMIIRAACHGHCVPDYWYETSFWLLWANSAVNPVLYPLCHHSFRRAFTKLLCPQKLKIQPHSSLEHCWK

[9] = system: Tyrosine-protein kinase ABL1 (Homo sapiens), P00519 [G250E]; assay: ABL1 G250E Kinase screen; settings: Compound concentration 1.0 uM
[10] = target: CDK8/Cyclin C (Homo sapiens) (UniProt P49336+P24863); assay: CDK8/cyclin C Kinase screen; assay type: protein-complex assay; settings: Compound concentration 1.0 uM
[11] = target: Dual specificity protein kinase CLK1 (Homo sapiens) (UniProt P49759); assay: CLK1 Kinase screen; settings: Compound concentration 1.0 uM
Chain of Dual specificity protein kinase CLK1 (Homo sapiens) (P49759 whole entry, looked up): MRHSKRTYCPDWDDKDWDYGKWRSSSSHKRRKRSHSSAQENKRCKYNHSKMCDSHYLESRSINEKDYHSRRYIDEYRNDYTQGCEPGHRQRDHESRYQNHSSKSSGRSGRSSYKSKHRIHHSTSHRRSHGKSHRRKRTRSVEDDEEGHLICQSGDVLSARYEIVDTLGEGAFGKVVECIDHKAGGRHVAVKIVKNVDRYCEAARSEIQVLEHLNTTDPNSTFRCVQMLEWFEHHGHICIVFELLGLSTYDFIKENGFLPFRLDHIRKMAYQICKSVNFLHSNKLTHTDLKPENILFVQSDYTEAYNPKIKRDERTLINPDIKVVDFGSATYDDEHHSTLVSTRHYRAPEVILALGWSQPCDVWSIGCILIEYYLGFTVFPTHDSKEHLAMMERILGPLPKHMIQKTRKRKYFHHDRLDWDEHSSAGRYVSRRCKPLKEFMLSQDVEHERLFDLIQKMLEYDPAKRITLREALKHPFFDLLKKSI

[12] = target: Mitogen-activated protein kinase 14 (Homo sapiens) (UniProt Q16539); assay: MAPK14 (p38 alpha) Kinase screen; settings: Compound concentration 1.0 uM
Chain of Mitogen-activated protein kinase 14 (Homo sapiens) (Q16539 whole entry): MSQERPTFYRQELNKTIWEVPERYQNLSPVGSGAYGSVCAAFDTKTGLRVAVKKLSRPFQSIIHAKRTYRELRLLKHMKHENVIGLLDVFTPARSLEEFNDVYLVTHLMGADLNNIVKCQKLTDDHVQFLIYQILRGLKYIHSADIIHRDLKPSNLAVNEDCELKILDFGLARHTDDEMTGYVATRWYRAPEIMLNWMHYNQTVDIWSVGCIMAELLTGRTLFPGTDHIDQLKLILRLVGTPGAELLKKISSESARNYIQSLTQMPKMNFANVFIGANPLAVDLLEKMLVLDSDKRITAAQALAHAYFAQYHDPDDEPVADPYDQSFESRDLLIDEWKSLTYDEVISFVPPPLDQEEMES

[13] = target: T2, Megakaryocyte-associated tyrosine-protein kinase (Homo sapiens) (UniProt P42679); assay: MATK (HYL) Kinase screen; settings: Compound concentration 1.0 uM
T2 sequence (whole entry): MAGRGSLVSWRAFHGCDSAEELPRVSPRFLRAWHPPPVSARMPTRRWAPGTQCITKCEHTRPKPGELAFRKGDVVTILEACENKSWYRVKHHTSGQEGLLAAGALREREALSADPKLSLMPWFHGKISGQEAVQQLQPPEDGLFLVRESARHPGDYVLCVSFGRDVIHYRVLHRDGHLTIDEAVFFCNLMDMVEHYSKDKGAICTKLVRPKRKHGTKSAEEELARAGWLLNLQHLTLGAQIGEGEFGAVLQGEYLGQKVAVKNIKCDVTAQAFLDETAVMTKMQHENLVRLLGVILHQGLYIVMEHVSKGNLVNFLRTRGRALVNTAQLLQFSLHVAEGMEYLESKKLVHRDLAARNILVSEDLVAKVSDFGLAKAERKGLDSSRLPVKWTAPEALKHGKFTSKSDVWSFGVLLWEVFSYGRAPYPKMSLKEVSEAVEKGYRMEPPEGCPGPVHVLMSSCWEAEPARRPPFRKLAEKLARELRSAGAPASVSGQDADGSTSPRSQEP

[14] = target: NT-3 growth factor receptor (Homo sapiens) (UniProt Q16288); assay: NTRK3 (TRKC) Kinase screen; settings: Compound concentration 1.0 uM
Chain of NT-3 growth factor receptor (Homo sapiens) (Q16288 32-839 limits assumed): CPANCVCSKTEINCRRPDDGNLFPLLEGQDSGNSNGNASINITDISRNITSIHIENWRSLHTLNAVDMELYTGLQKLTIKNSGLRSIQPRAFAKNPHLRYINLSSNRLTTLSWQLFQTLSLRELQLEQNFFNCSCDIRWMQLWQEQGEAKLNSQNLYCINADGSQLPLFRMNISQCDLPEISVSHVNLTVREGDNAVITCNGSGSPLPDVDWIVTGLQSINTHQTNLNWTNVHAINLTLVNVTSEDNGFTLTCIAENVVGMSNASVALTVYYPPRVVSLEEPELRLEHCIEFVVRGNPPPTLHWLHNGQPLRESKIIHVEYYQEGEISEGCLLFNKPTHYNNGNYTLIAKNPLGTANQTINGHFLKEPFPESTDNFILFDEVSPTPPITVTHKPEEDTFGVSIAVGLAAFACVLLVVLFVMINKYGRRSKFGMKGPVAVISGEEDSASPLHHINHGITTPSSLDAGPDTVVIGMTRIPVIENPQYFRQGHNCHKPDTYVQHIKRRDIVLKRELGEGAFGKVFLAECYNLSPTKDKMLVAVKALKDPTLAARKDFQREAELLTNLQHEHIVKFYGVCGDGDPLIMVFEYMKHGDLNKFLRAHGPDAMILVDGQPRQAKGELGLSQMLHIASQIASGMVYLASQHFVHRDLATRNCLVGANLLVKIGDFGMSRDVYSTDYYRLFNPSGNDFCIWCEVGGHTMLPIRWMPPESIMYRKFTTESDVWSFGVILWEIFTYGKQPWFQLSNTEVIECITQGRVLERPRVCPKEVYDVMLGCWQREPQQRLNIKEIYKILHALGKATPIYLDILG

[15] = target: Serine/threonine-protein kinase PLK1 (Homo sapiens) (UniProt P53350); assay: PLK1 Kinase screen; settings: Compound concentration 1.0 uM
[16] = target: Proto-oncogene tyrosine-protein kinase ROS (Homo sapiens) (UniProt P08922); assay: ROS1 Kinase screen; settings: Compound concentration 1.0 uM
[17] = target: Wee1-like protein kinase (Homo sapiens) (UniProt P30291); assay: WEE1 Kinase screen; settings: Compound concentration 1.0 uM
[18] = Compound concentration 1000.0 nM
[19] = Compound concentration 100.0 nM

Chain of Cyclin-dependent kinase-like 3 (Homo sapiens) (Q8IVW4 whole entry, looked up): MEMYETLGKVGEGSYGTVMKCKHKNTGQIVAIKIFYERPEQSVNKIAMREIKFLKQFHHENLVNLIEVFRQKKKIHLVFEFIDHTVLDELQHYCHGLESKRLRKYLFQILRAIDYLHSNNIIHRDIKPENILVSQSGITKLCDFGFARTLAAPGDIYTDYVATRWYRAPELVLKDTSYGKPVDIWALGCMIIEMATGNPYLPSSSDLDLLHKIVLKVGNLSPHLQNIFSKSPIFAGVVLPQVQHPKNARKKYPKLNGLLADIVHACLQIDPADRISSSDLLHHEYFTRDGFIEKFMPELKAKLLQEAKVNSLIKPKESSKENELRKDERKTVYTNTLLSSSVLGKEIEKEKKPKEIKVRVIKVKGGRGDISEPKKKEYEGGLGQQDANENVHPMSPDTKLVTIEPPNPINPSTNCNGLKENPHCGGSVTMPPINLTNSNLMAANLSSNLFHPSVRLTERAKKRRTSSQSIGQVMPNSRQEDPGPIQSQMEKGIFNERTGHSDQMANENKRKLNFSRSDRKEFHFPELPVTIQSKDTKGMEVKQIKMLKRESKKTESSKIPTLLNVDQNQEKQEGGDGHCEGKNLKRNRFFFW
Chain of Activin receptor type-2A (Homo sapiens) (P27037 whole entry): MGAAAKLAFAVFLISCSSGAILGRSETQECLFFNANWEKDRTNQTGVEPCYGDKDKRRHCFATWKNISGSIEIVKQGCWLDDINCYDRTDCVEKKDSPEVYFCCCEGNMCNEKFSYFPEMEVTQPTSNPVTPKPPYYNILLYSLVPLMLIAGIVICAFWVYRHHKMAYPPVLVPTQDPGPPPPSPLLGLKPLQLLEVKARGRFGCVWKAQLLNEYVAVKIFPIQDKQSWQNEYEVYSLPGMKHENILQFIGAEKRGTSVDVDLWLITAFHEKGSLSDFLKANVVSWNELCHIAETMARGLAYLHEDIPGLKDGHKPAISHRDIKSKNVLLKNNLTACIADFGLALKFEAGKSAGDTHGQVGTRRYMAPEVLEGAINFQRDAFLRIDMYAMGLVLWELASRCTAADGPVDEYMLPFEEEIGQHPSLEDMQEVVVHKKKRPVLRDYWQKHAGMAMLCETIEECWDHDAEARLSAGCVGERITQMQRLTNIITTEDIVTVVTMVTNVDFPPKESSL

C[C@@H]1CN(c2cc(-c3nn(C)c4ccc(OC5(C)CC5)cc34)ncn2)C[C@H](C)O1 [MLi-2-NC] was tested, and the residual activity [1, 18] was 85%, the residual activity [2, 18] was 100% and the residual activity [3, 18] was 73%. It also gave a residual activity [4, 18] of 88%, a residual activity [5, 18] of 12% and a residual activity [6, 18] of 88%. It also gave a residual activity [7, 18] of 65% and an inhibition [8] of -6.25%.
In the case of C[C@@H]1CN(c2cc(-c3n[nH]c4ccc(OC5(C)CC5)cc34)ncn2)C[C@H](C)O1 [MLi-2], the inhibition [9] is reported as 4.45%, the inhibition [10] is reported as 8.75% and the inhibition [11] is reported as 15.7%. It also gave an inhibition [12] of -6.52%, an inhibition [13] of 3.28% and an inhibition [14] of 14.9%. For the same compound, the inhibition [15] was 7.54%, the inhibition [16] was 2.52% and the inhibition [17] was 3%. The residual activity [1, 19] was 87%, the residual activity [2, 19] was 94% and the residual activity [3, 19] was 96%. The residual activity [4, 19] was 75%, the residual activity [5, 19] was 0% and the residual activity [6, 19] was 89%. It also gave a residual activity [7, 19] of 71%.
